Active and inactive are the calls of the source.
Experiments:
[1] = system: RAW264.7; assay: Inhibition of NF-kappaB signaling pathway in mouse RAW264.7 cells assessed as reduction in RANKL-induced IKKbeta phosphorylation at 10 to 40 uM after 30 mins by Western blot method; assay type: cell-based
[2] = system: RAW264.7; assay: Inhibition of RANKL-induced osteoclast differentiation in mouse RAW264.7 cells assessed as decrease in number of TRAP-positive multinucleated cells after 5 days by microscopy; assay type: functional, cell-based
[3] = system: RAW264.7; assay: Inhibition of RANKL-induced osteoclast differentiation in mouse RAW264.7 cells assessed as decrease in size of TRAP-positive multinucleated cells after 5 days by microscopy; assay type: functional, cell-based
[4] = system: RAW264.7; assay: Inhibition of NF-kappaB/p38 MAPK signaling pathway in mouse RAW264.7 cells assessed as reduction in RANKL-induced NFATc1 mRNA level after 24 hrs by qRT-PCR method; assay type: cell-based
[5] = system: RAW264.7; assay: Inhibition of NF-kappaB/p38 MAPK signaling pathway in mouse RAW264.7 cells assessed as reduction in RANKL-induced c-Fos mRNA level after 24 hrs by qRT-PCR method; assay type: cell-based
[6] = system: RAW264.7; assay: Inhibition of NF-kappaB/p38 MAPK signaling pathway in mouse RAW264.7 cells assessed as reduction in RANKL-induced MMP-9 mRNA level after 24 hrs by qRT-PCR method; assay type: cell-based
[7] = system: RAW264.7; assay: Inhibition of NF-kappaB/p38 MAPK signaling pathway in mouse RAW264.7 cells assessed as reduction in RANKL-induced NFATc1 nuclear translocation after 24 hrs by Western blot method; assay type: cell-based
[8] = system: RAW264.7; assay: Inhibition of RANKL-induced osteoclast differentiation in mouse RAW264.7 cells harboring AMPKalpha1 siRNA assessed as decrease in NFATc1 mRNA level at 20 uM after 24 hrs by qRT-PCR method; assay type: functional, cell-based
[9] = target: T1, Estrogen receptor (Mus musculus) (UniProt P19785); assay: Induction of estrogen receptor-mediated AMPKalpha1 activation in mouse RAW264.7 cells at 20 uM in presence of estrogen receptor antagonist fulvestrant; assay type: cell-based
T1 sequence (whole entry): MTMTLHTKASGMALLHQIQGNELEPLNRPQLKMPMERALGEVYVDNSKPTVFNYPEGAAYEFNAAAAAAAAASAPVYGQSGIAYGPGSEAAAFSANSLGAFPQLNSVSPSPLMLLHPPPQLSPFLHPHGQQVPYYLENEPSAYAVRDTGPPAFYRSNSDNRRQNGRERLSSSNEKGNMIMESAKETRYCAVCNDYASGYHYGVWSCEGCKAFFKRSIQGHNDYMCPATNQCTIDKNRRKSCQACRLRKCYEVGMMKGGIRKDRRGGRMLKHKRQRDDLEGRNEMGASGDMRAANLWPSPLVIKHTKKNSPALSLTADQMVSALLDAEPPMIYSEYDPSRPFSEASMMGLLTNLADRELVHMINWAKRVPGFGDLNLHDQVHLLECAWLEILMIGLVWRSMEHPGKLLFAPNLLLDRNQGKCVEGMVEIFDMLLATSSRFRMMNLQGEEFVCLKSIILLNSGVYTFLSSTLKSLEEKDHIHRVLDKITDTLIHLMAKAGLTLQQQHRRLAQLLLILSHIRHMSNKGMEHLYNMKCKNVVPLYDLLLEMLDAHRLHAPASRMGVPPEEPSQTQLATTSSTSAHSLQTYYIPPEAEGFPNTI

[10] = system: RAW264.7; assay: Inhibition of RANKL-induced PKA phosphorylation in mouse RAW264.7 cells at 10 to 40 uM after 24 hrs by Western blot analysis; assay type: cell-based
[11] = system: RAW264.7; assay: Inhibition of RANKL-induced osteoclast differentiation in mouse RAW264.7 cells assessed as decrease in size of TRAP-positive multinucleated cells at 20 uM after 5 days in presence of ERalpha antagonist MPP by microscopy; assay type: functional, cell-based
[12] = system: RAW264.7; assay: Inhibition of RANKL-induced osteoclast differentiation in mouse RAW264.7 cells assessed as decrease in TRAP activity at 20 uM after 5 days in presence of ERalpha antagonist MPP by microscopy; assay type: functional, cell-based
[13] = system: RAW264.7; assay: Inhibition of RANKL-induced osteoclast differentiation in mouse RAW264.7 cells assessed as decrease in c-Fos mRNA level at 20 uM after 24 hrs in presence of ERalpha antagonist MPP by qRT-PCR method; assay type: functional, cell-based
[14] = system: RAW264.7; assay: Inhibition of RANKL-induced osteoclast differentiation in mouse RAW264.7 cells assessed as decrease in NFATc1 mRNA level at 20 uM after 24 hrs in presence of ERalpha antagonist MPP by qRT-PCR method; assay type: functional, cell-based
[15] = system: RAW264.7; assay: Inhibition of RANKL-induced osteoclast differentiation in mouse RAW264.7 cells harboring ERalpha siRNA assessed as decrease in number of TRAP-positive multinucleated cells at 20 uM after 5 days by microscopy; assay type: functional, cell-based
[16] = system: RAW264.7; assay: Inhibition of RANKL-induced osteoclast differentiation in mouse RAW264.7 cells harboring ERalpha siRNA assessed as decrease in TRAP activity at 20 uM after 5 days by microscopy; assay type: functional, cell-based
[17] = system: RAW264.7; assay: Inhibition of RANKL-induced osteoclast differentiation in mouse RAW264.7 cells harboring ERalpha siRNA assessed as decrease in c-Fos mRNA level at 20 uM after 24 hrs by qRT-PCR method; assay type: functional, cell-based
[18] = system: RAW264.7; assay: Inhibition of RANKL-induced osteoclast differentiation in mouse RAW264.7 cells harboring ERbeta siRNA assessed as decrease in number of TRAP-positive multinucleated cells at 20 uM after 5 days by microscopy; assay type: functional, cell-based
[19] = system: RAW264.7; assay: Inhibition of RANKL-induced osteoclast differentiation in mouse RAW264.7 cells harboring ERbeta siRNA assessed as decrease in TRAP mRNA level at 20 uM after 24 hrs by qRT-PCR method; assay type: functional, cell-based
[20] = system: RAW264.7; assay: Inhibition of RANKL-induced osteoclast differentiation in mouse RAW264.7 cells harboring ERbeta siRNA assessed as decrease in NFATc1 mRNA level at 20 uM after 24 hrs by qRT-PCR method; assay type: functional, cell-based
[21] = system: Mus musculus; assay: Anti-osteoporotic activity in Balb/c mouse assessed as inhibition of OVX-mediated decrease in trabecular bone volume in femur at 25 to 100 mg/kg, ip administered for 4 weeks daily by microcomputed tomography; assay type: functional, organism-based
[22] = system: Mus musculus; assay: Anti-osteoporotic activity in Balb/c mouse assessed as decrease in OVX-induced trabecular bone surface in femur at 25 to 100 mg/kg, ip administered for 4 weeks daily by microcomputed tomography; assay type: functional, organism-based
[23] = system: Mus musculus; assay: Anti-osteoporotic activity in Balb/c mouse assessed as inhibition of OVX-induced serum NTx level at 25 to 100 mg/kg, ip administered for 4 weeks daily by ELISA; assay type: functional, organism-based

COc1cc(C2Oc3c(OC)cc(/C=C/CO)cc3C2CO)ccc1O (stereo not drawn)
inactive: inhibition [8] | Activity [9] | inhibition [10] | inhibition [11] | inhibition [12] | inhibition [13] | inhibition [14] | inhibition [15] | inhibition [16] | inhibition [17]
active: inhibition [1] | inhibition [2] Dose-dependent effect | inhibition [3] Dose-dependent effect | inhibition [4] Dose-dependent effect | inhibition [5] Dose-dependent effect | inhibition [6] Dose-dependent effect | inhibition [7] Dose-dependent effect | inhibition [18] | inhibition [19] | inhibition [20] | inhibition [21] | Activity [22] | inhibition [23]

— ChEMBL document CHEMBL4145608, “Dehydrodiconiferyl Alcohol Inhibits Osteoclast Differentiation and Ovariectomy-Induced Bone Loss through Acting as an Estrogen Receptor Agonist” (J Nat Prod, 2018)
